Source: patent publication US20250108017A1 (Aquestive Therapeutics, Inc., priority 2023, published 2025)
Where two headings read alike, the source gives them in different places.

Legend:
[1] = in vivo
Procedure: The study compared various dose routes: sublingual (SL), per oral tablet (PO), subcutaneous (SC) and intravenous (IV). […] An Oral Irritation assessment was performed (SL film group): Predose (0) and 24 hr postdose by Draize scoring.

[2] = for average flux: 16 mg/mL
Procedure: A franz diffusion cell is obtained and prepared.
If testing films, one can perform the following next steps: (1) weigh films, punch to match diffusion area (or smaller), reweigh, record pre- and post-punching weight; (2) wet a donor area with approximately 100 μL of phosphate buffer; (3) place film on a donor surface, top with 400 μL of phosphate buffer, and start timers.
The tissue is dermatomed to precise thickness. • 4. […] The media is selected to ensure sink conditions. • 5.
The study compared concentrations of 4 mg/mL, 8 mg/mL, 16 mg/mL and 100 mg/mL. […]

[3] = PBS (pH 7.4), 37°±1° C., n=6; cited from earlier work

## CNC[C@H](O)c1ccc(OC(=O)C(C)(C)C)c(OC(=O)C(C)(C)C)c1 (racemic) [Dipivefrin, dipivefrin]
[1]
  % Bioavailability, DIPI AUC0-t: 128.5%
  % Bioavailability, EPI AUC0-t: 131.0%

## CNC[C@H](O)c1ccc(O)c(O)c1 [Epinephrine Bitartrate]
[2]
  permeation as a function of solution pH: slightly more favorable
[2]; 30 min
  average flux: 0 μg/cm^2*min
[2]; 45 min
  average flux: 0.2604 μg/cm^2*min
[2]; 60 min
  average flux: 0.3125 μg/cm^2*min
[2]; 120 min
  average flux: 0.6727 μg/cm^2*min
[2]; 180 min
  average flux: 1.076 μg/cm^2*min
[2]; 240 min
  average flux: 1.029 μg/cm^2*min
[2]; 300 min
  average flux: 1.25 μg/cm^2*min
[2]; 360 min
  average flux: 1.385 μg/cm^2*min

## CC(C)NCC(O)COc1cccc2ccccc12 (stereo not drawn) [PP]
[3]
  concentration of saturated solution (C0): 588005 ± 5852 µg/mL
